Experimental data reported in ChEMBL document CHEMBL5303304, “EUbOPEN Chemogenomics Library - IncuCyte” (2023).

How the values were obtained:
Format in all cases: toxicity, cell-based
HEK-293T = test: Incucyte cell viability with HEK293T; conditions: human, 10 µM, compound concentration 10 uM
Fibroblast = test: Incucyte cell viability with human fibroblast; conditions: 10 µM, compound concentration 10 uM
U2OS = test: Incucyte cell viability with U2OS; conditions: human, 10 µM, compound concentration 10 uM
Also: unitless GR value; below 1 slowed growth and below 0 cell loss.

SMILES	Growth Rate (HEK-293T; 0 h, replicate number 1)	Growth Rate (HEK-293T; 0 h, replicate number 2)	Growth Rate (HEK-293T; 6 h, replicate number 1)	Growth Rate (Fibroblast; 0 h, replicate number 1)	Growth Rate (Fibroblast; 0 h, replicate number 2)	Growth Rate (Fibroblast; 6 h, replicate number 1)	Growth Rate (Fibroblast; 12 h, replicate number 1)	Growth Rate (Fibroblast; 12 h, replicate number 2)	Growth Rate (Fibroblast; 24 h, replicate number 2)	Growth Rate (U2OS; 0 h, replicate number 2)	Growth Rate (U2OS; 6 h, replicate number 2)	Growth Rate (U2OS; 12 h, replicate number 1)	Growth Rate (U2OS; 12 h, replicate number 2)	Growth Rate (U2OS; 18 h, replicate number 1)	Growth Rate (U2OS; 18 h, replicate number 2)	Growth Rate (U2OS; 24 h, replicate number 1)	Growth Rate (U2OS; 24 h, replicate number 2)	Growth Rate (Fibroblast; 6 h, replicate number 2)	Growth Rate (Fibroblast; 18 h, replicate number 1)	Growth Rate (HEK-293T; 6 h, replicate number 2)	also measured
O=C1NCCc2c(OCCCCN3CCCCC3)cccc21	0.6	0.67	0.81	0.29	-0.96	0.19	-0.5	0.64	0.76	-0.98	0.34	0.56	0.86	0.79	0.88	0.79	0.83				Growth Rate (Fibroblast; 18 h, replicate number 2): 0.79; Growth Rate (U2OS; 6 h, replicate number 1): 0.02
Clc1cccc(-n2nnnc2NCc2ccccc2Oc2ccccn2)c1Cl	0.73	0.49		0.89	0.26			0.89		0.95	0.99	0.9			0.96			-0.47	0.74		Growth Rate (Fibroblast; 24 h, replicate number 1): 0; Growth Rate (U2OS; 0 h, replicate number 1): -0.04
O=C1NCCSc2c1sc1ccc(O)cc21	0.04	-0.36	-0.48			-0.69	-1			-0.99		0.56	0.36	0.33	0.31	0.37	0.18			-0.51	Growth Rate (HEK-293T; 12 h, replicate number 1): -0.4; Growth Rate (HEK-293T; 12 h, replicate number 2): -0.26; Growth Rate (HEK-293T; 18 h, replicate number 1): -0.14; Growth Rate (HEK-293T; 18 h, replicate number 2): -0.06; Growth Rate (HEK-293T; 24 h, replicate number 1): 0.15; Growth Rate (HEK-293T; 24 h, replicate number 2): 0.12; Growth Rate (U2OS; 0 h, replicate number 1): 0
CC(C)CNc1nc(N2CCN(CC3CCCOC3)CC2)ncc1C(=O)NCc1ccccc1 (stereo not given)	0.68		0.81	-0.99				-0.95	-0.64		0.72	0.83	0.63	0.99	0.76		0.79	-1	-0.97	0.95	Growth Rate (Fibroblast; 18 h, replicate number 2): -0.81; Growth Rate (Fibroblast; 24 h, replicate number 1): -0.8; Growth Rate (U2OS; 6 h, replicate number 1): 0.3
CCOc1ccccc1C(=O)NCC1(N2CCN(CC)CC2)CCCCC1	0.98		0.23	-0.95	-0.98			0.93	0.83	-0.99	0.56		0.88		0.86		0.94	-0.9	-0.25	-0.02	Growth Rate (HEK-293T; 12 h, replicate number 1): -0.11; Growth Rate (HEK-293T; 12 h, replicate number 2): 0.31; Growth Rate (HEK-293T; 18 h, replicate number 1): 0.24; Growth Rate (HEK-293T; 18 h, replicate number 2): 0.44; Growth Rate (HEK-293T; 24 h, replicate number 1): 0.44; Growth Rate (HEK-293T; 24 h, replicate number 2): 0.46; Growth Rate (Fibroblast; 24 h, replicate number 1): 0.45; Growth Rate (U2OS; 0 h, replicate number 1): -0.19
Cn1c(SCc2ccc(C(C)(C)C)cc2)nc(N)cc1=O	0.71		-0.1	0.97	-1	-0.69				-0.65		0.86	0.66	0.62	0.71	0.78	0.68			-0.24	Growth Rate (HEK-293T; 12 h, replicate number 1): -0.03; Growth Rate (HEK-293T; 12 h, replicate number 2): 0.05; Growth Rate (HEK-293T; 18 h, replicate number 1): 0.15; Growth Rate (HEK-293T; 18 h, replicate number 2): 0.19; Growth Rate (HEK-293T; 24 h, replicate number 1): 0.2; Growth Rate (HEK-293T; 24 h, replicate number 2): 0.23; Growth Rate (U2OS; 6 h, replicate number 1): 0.7
O=C(Nc1ccc(S(=O)(=O)Nc2nccs2)cc1)C(c1ccccc1)c1ccccc1	0.71		0.94		-0.85			0.85				0.81	0.82			0.94			0.49	0.52	Growth Rate (HEK-293T; 18 h, replicate number 2): 0.82; Growth Rate (HEK-293T; 24 h, replicate number 1): 0.88; Growth Rate (HEK-293T; 24 h, replicate number 2): 0.9
FC(F)(F)Oc1ccc(-c2ccc3nnc(C(F)(F)F)n3c2)cc1	0.83	0.64	0.53			-0.05	-1	0.76	0.91		0.81	0.82	0.64	0.74	0.92	0.91	0.96	-1	0.42		Growth Rate (HEK-293T; 18 h, replicate number 1): 1; Growth Rate (Fibroblast; 18 h, replicate number 2): 0.75; Growth Rate (U2OS; 6 h, replicate number 1): 0.08
CCN1CCN(Cc2ccc(Nc3ncc(F)c(-c4cc(F)c5nc(C)n(C(C)C)c5c4)n3)nc2)CC1.CS(=O)(=O)O	-0.17	0.21		0.5		0.33	-1	0.98					0.97		0.98		1			0.64	Growth Rate (HEK-293T; 12 h, replicate number 1): 0.36; Growth Rate (HEK-293T; 12 h, replicate number 2): 0.38; Growth Rate (HEK-293T; 18 h, replicate number 2): 0.6; Growth Rate (HEK-293T; 24 h, replicate number 2): 0.76
O=S(=O)(Nc1nnc2cc(OCC34CC5CC(CC(C5)C3)C4)c(C3CC3)cn12)C1CC1	0.55	0.41	0.8			0.92	-1	0.16	0.63		0.37	0.94	0.76		0.91	0.94	0.89	-1	0.51		Growth Rate (Fibroblast; 18 h, replicate number 2): 0.43
C=CC(=O)N1CCC[C@@H](n2nc(C(=O)Nc3ccc(CC(=O)N(C)C)c(C)c3C)c3c(N)ncnc32)C1	-0.26	-0.68		0.74	-1	-0.17	-1			-0.77											Growth Rate (Fibroblast; 24 h, replicate number 1): 0.16
